The nature of series [1]: Transdermal delivery of conjugate to microporated rat skin, conjugate level in plasma by sandwich ELISA. The format is in vivo, Male CD Hairless rats. The settings on record: rats; for Intact conjugate present in the blood stream as a function of time: after application to microporated skin, blood draws over 2-3 hour period; for Transdermal delivery of the peptide conjugate: applied to microporated skin relative to intact skin, occluded. The protocol: The γV5 peptide RLVLAS (SEQ ID NO: 43) with an […] (Ac) end cap was attached by a GG linker to a TAT carrier peptide (SEQ ID NO: 46) and then the C-terminus was amidated (NH2) to form a conjugate identified as SEQ ID NO: 49. Transdermal delivery of this conjugate was performed as described in Example 1 except that a 1 cm^2 solid polymer microneedle array was used to microporate the skin and an aqueous reservoir patch was used to contact a 10% aqueous formulation of the conjugate with the microporated skin. Results are shown in FIG. 3, where the amount of conjugate in the blood, in ng/mL, is shown as a function of time.
For orientation: In an ELISA, binding on a coated surface is turned into a signal by an enzyme label.

For series [2] the following is noted: microporated vs intact rat skin; 30 μm planar skin sections (FIG. 1A).
Description: Male CD Hairless rats were weighed (range: 300-500 grams) and anesthetized by inhaled isoflurane. The rats remained under anesthesia for the duration of the experiment and were sacrificed after the last blood draw. Rats were cannulated at a femoral or jugular vein for blood draws. A derma roller with 1.0 or 1.5 mm microneedles (Moohan Dr. Roller) was rolled across a 1 cm^2 area of skin on the dorsal trunk or waist by passing the roller over the skin 5 times with moderate pressure. Fifty μL of the cPKC inhibitor peptide [sequence] (SEQ ID NO:13) attached to a TAT carrier peptide to form the conjugate peptide identified as SEQ ID NO: 14 at 1% to 10% (10 to 100 mg/mL) was applied to the microporated skin and occluded with a 1 cm^2 piece of saran wrap. […] As a control, rats with intact skin (i.e., rats not subjected to the microneedle array) were also treated with the same peptide conjugate.
To analyze levels of the εPKC inhibitor peptide [sequence] (SEQ ID NO:13) in plasma, both ELISA on planar skin sections and a sandwich ELISA that uses antibodies that recognize different portions of the conjugate (the εPKC inhibitor peptide and the TAT carrier peptide) were employed.

For `CC[C@H](C)[C@H](NC(=O)[C@@H]1CCCN1C(=O)[C@H](C)NC(=O)[C@H](CC(=O)O)NC(=O)[C@H](Cc1c[nH]cn1)NC(C)=O)C(=O)NCC(=O)N[C@@H](Cc1ccc(O)cc1)C(=O)N[C@@H](CC(=O)O)C(=O)NCCCCCC(=O)N[C@@H](Cc1ccc(O)cc1)C(=O)NCC(=O)N[C@@H](CCCNC(=N)N)C(=O)N[C@@H](CCCCN)C(=O)N[C@@H](CCCCN)C(=O)N[C@@H](CCCNC(=N)N)C(=O)N[C@@H](CCCNC(=N)N)C(=O)N[C@@H](CCC(N)=O)C(=O)N[C@@H](CCCNC(=N)N)C(=O)N[C@@H](CCCNC(=N)N)C(=O)N[C@@H](CCCNC(=N)N)C(N)=O` [SEQ ID NO: 19, AC-HDAPIGYD-AHX-YGRKKRRQRRR-NH2], in series [1], the “Intact conjugate present in the blood stream as a function of time” value is “in an increasing amount with time” and the “Transdermal delivery of the peptide conjugate” value is recorded as “enhanced”.
With “Ac-EAVSLKPTGGYGRKKRRQRRR-NH2 [SEQ ID NO: 14, Ac-EAVSLKPT GG YGRKKRRQRRR-NH2]”, in series [1], the “Intact conjugate present in the blood stream as a function of time” value is given as “in an increasing amount with time” and the “Transdermal delivery of the peptide conjugate” value is given as “significantly enhanced”. The “Penetration of the peptide conjugate through the stratum corneum and into the underlying skin” value in series [2] is “increased penetration”.
